Results on 17 compounds are retold here after US12180192B2, “Modulators of THR-β and methods of use thereof” (ALIGOS THERAPEUTICS, INC., priority 2019, dated 2024).

pEC50: −log10 of the molar value. Read-outs that look alike come from different tables or passages of the source.

One assay has as its target T1, THR beta (Homo sapiens, UniProt P10828).
T1 construct: expressed in transfected cells; host or cells: HEK293T (ATCC CRL-3216)
T1 sequence (P10828 1-461): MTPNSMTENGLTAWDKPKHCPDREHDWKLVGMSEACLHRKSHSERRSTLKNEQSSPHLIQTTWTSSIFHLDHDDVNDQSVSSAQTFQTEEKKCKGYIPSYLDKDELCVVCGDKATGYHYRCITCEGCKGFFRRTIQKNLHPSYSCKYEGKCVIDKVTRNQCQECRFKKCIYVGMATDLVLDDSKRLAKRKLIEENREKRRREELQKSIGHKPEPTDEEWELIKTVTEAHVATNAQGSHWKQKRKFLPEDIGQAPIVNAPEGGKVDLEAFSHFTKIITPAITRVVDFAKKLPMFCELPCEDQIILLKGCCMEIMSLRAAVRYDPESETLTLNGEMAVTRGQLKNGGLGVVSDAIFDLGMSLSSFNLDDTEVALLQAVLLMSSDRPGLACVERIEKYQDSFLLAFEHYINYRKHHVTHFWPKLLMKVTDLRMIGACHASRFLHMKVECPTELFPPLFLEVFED
T1 sequence (P19793 1-462 partner): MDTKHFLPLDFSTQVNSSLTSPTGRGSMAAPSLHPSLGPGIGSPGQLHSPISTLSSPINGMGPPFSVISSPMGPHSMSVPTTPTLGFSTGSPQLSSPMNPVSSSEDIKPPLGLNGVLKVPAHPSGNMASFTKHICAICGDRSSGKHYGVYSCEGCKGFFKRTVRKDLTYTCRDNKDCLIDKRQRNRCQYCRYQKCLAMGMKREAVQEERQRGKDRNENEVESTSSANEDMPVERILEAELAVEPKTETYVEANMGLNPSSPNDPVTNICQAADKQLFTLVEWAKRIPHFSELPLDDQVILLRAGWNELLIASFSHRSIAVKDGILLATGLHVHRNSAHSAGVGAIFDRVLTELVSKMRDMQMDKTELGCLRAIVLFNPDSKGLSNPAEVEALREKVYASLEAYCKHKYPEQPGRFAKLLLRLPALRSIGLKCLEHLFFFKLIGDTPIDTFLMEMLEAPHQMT
Nature of the assay: HEK293T THR beta/RXR luciferase reporter assay (Assay 2). Type of assay: cell-based. Particulars: for Emax: HEK-293T. An outline of the steps:
(§1)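 HEK293T cells transiently transfected with TRE-luciferase reporter, RXR, and THR alpha or THR beta plasmid; ten five-fold compound dilutions from DMSO added for 18-24 h. One-Glo luminescence read; percent agonism normalized between negative and positive controls.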

A further assay deals with T2, THR alpha (Homo sapiens, UniProt P10827).
T2 construct: expressed in transfected cells; host or cells: HEK293T (ATCC CRL-3216)
T2 sequence (P10827 1-410 isoform P10827-2): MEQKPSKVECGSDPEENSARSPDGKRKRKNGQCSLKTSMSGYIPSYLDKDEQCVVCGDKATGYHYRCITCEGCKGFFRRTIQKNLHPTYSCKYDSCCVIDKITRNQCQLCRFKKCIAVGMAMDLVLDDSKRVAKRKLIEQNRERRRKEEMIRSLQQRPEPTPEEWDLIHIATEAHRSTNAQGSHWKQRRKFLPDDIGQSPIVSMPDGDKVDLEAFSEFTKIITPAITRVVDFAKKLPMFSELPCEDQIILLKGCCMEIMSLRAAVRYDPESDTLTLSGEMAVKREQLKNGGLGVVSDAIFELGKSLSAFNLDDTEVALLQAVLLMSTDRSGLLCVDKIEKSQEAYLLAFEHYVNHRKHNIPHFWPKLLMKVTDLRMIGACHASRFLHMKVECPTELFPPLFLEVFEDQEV
T2 sequence (P19793 1-462 partner): T1 sequence (P19793 1-462 partner)
Nature of the assay: HEK293T THR alpha/RXR luciferase reporter assay (Assay 2). The format is cell-based. To be noted: for Emax: HEK-293T. The method in brief: as §1
On the technique in general: In a reporter assay the amount or activity of a reporter protein is the signal.

Setting [1] is: Table 5, Assay 2, THRβ, read-out: Activity category Assay 2 THRβ (Emax).
The mark [2] stands for this setting: THR-beta, HEK293T reporter assay, read-out: Activity category Assay 2 (EC50, THR-beta agonist).
Where [3] appears, read: Table 5, Assay 2, THRα, read-out: Activity category Assay 2 THRα (Emax).
[4] abbreviates: Table 4, THR-alpha, Assay 2, read-out: Activity category Assay 2 (EC50, THR-alpha agonist activity).

For orientation: pEC50 means the EC50 on a negative log10 scale, so that one unit is a factor of ten. `Nc1nn(-c2cc(Cl)c(Oc3cc(C4CCC4)c(=O)[nH]n3)c(Cl)c2)c(=O)[nH]c1=O` [Compound 40, 6-amino-2-[3,5-dichloro-4-[(5-cyclobutyl-6-oxo-1H-pyridazin-3-yl)oxy]phenyl]-4H-1,2,4-triazine-3,5-dione]: the pEC50 at THR beta (HEK293T reporter THRbeta/RXR, read-out: EC50 β) was 7.24; on THR beta (setting [2]), 6.60 to 7.30; at THR alpha (HEK293T reporter THRalpha/RXR, read-out: EC50 α), 6.25; on THR alpha (setting [4]) it was 6.00 to 6.60. Also, the Emax at THR beta (HEK293T reporter THRbeta/RXR, read-out: percent in parentheses below EC50 β (percent agonism / Emax)) is 92%; on THR beta (setting [1]) it was greater than 75%; on THR alpha (HEK293T reporter THRalpha/RXR, read-out: percent in parentheses below EC50 α (percent agonism / Emax)), 95%; on THR alpha (setting [3]) it was greater than 75%.

`CC(C)c1c[nH]c2ccc(Oc3c(Cl)cc(-n4nc(C#N)c(=O)[nH]c4=O)cc3Cl)cc12` [Compound 1, 2-[3,5-dichloro-4-[(3-isopropyl-1H-indol-5-yl)oxy]-phenyl]-3,5-dioxo-4H-1,2,4-tri-azine-6-carbonitrile]: the Emax on THR beta (setting [1]) and at THR alpha (setting [3]) was greater than 75% throughout. Further, the negative-log EC50 (pEC50) was 6.60 to 7.30 on THR beta (setting [2]) and 6.00 to 6.60 at THR alpha (setting [4]).

`CC(C)c1cc(Oc2c(Cl)cc(-c3nn(C)c(=O)[nH]c3=O)cc2Cl)n[nH]c1=O` [Compound 16, 6-[3,5-dichloro-4-[(5-isopropyl-6-oxo-1H-pyridazin-3-yl)oxy]phenyl]-2-methyl-4H-1,2,4-triazine-3,5-dione]: the Emax on THR beta (setting [1]) and on THR alpha (setting [3]) was greater than 75% in each case. Moreover, the pEC50 on THR beta (setting [2]) is 6.60 to 7.30; at THR alpha (setting [4]), 6.00 to 6.60.

On to `CC(c1cc(Oc2c(Cl)cc(-n3nc(N)c(=O)[nH]c3=O)cc2Cl)n[nH]c1=O)C1CC(F)(F)C1` (single isomer, unassigned) [Compound 61-A, 6-amino-2-[3,5-dichloro-4-([5-[1-(3,3-difluorocyclobutyl)ethyl]-6-oxo-1H-pyridazin-3-yl]oxy)phenyl]-4H-1,2,4-tri-azine-3,5-dione], for which the results for the Emax at THR beta (setting [1]) and on THR alpha (setting [3]) were greater than 75% and 50 to 75%, respectively. Moreover, the results for the negative-log EC50 (pEC50) at THR beta (setting [2]) and at THR alpha (setting [4]) were greater than 7.30 and 6.60 to 7.30, respectively.

Turning to `Nc1nn(-c2cc(Cl)c(Oc3cc(C4Cc5ccccc54)c(=O)[nH]n3)c(Cl)c2)c(=O)[nH]c1=O` (stereo not drawn) [Compound 158], the Emax on THR beta (setting [1]) was 50 to 75%; at THR alpha (setting [3]) it was less than 50%. Also, the pEC50 was 6.60 to 7.30 on THR beta (setting [2]) and 5.00 to 6.00 on THR alpha (setting [4]).

For `Cc1cc(-n2nc(C#N)c(=O)[nH]c2=O)cc(C)c1Cc1ccc2[nH]c(=O)cc(C(C)C)c2c1` [Compound 90, 2-(4-((4-Isopropyl-2-oxo-1,2-dihydroquinolin-6-yl)methyl)-3,5-dimethylphenyl)-3,5-dioxo-2,3,4,5-tetrahydro-1,2,4-triazine-6-carbonitrile], the Emax on THR beta (setting [1]) is 50 to 75%; on THR alpha (setting [3]), less than 50%. For the same compound, the pEC50 on THR beta (setting [2]) and at THR alpha (setting [4]) was less than 5.00 throughout.

As for `Cc1cc(-n2nc(N)c(=O)[nH]c2=O)cc(C)c1Cc1ccc2c(c1)C1(CC1)C(=O)N2` [Compound 151, 6-Amino-2-(3,5-dimethyl-4-((2′-oxospiro[cyclopropane-1,3′-indolin]-5′-yl)methyl)phenyl)-1,2,4-triazine-3,5(2H,4H)-dione], the Emax on THR beta (setting [1]) and on THR alpha (setting [3]) was 50 to 75% in each case. The pEC50 on THR beta (setting [2]) and at THR alpha (setting [4]) was greater than 7.30 each time.

`Nc1nn(-c2cc(Cl)c(Oc3cc(-c4ccc5c(c4)CCCC5)c(=O)[nH]n3)c(Cl)c2)c(=O)[nH]c1=O` [Compound 72, 6-Amino-2-(3,5-dichloro-4-((6-oxo-5-(5,6,7,8-tetrahydro-naphthalen-2-yl)-1,6-dihydro-pyridazin-3-yl)oxy)phenyl)-1,2,4-triazine-3,5(2H,4H)-dione]: the Emax was 50 to 75% at THR beta (setting [1]) and less than 50% at THR alpha (setting [3]). Further, the negative logarithm of the EC50 (pEC50) was 6.60 to 7.30 at THR beta (setting [2]) and less than 5.00 on THR alpha (setting [4]).

In the case of `CC(C)Nc1n[nH]c2ccc(Oc3c(Cl)cc(-n4nc(C#N)c(=O)[nH]c4=O)cc3Cl)cc12` [Compound 145, 2-(3,5-dichloro-4-((3-(isopropylamino)-1H-indazol-5-yl)oxy)phenyl)-3,5-dioxo-2,3,4,5-tetrahydro-1,2,4-triazine-6-carbonitrile], the Emax on THR beta (setting [1]) and on THR alpha (setting [3]) was 50 to 75% in each case. In addition, the negative logarithm of the EC50 (pEC50) at THR beta (setting [2]) and at THR alpha (setting [4]) was 5.00 to 6.00 each time.

For the compound `Nc1nn(-c2cc(Cl)c(Oc3cc(-c4ccc5c(c4)CCCO5)c(=O)[nH]n3)c(Cl)c2)c(=O)[nH]c1=O` [Compound 114], the Emax on THR beta (setting [1]) and on THR alpha (setting [3]) was less than 50% in each case. Besides, the negative-log EC50 (pEC50) was 6.00 to 6.60 on THR beta (setting [2]) and less than 5.00 at THR alpha (setting [4]).

With `CCC(C)c1cc(Oc2c(Cl)cc(-n3nc(N)c(=O)[nH]c3=O)cc2Cl)n[nH]c1=O` (stereo not drawn) [Compound 39-A], the negative-log EC50 (pEC50) on THR beta (setting [2]) and on THR alpha (setting [4]) was 6.60 to 7.30 throughout. In addition, the “Activity category Assay 2 THRβ (Emax)” value on THR beta (Table 5, Assay 2, THRβ) is “A (Emax≥75%)”. Further, the “Activity category Assay 2 THRα (Emax)” value on THR alpha (Table 5, Assay 2, THRα) is listed as “A (Emax≥75%)”.

For the compound `CCC(C)c1cc(Oc2c(Cl)cc(-n3nc(N)c(=O)[nH]c3=O)cc2Cl)n[nH]c1=O` (stereo not drawn) [Compound 39-B], the pEC50 at THR beta (setting [2]) and on THR alpha (setting [4]) was greater than 7.30 in each case. Further, the “Activity category Assay 2 THRβ (Emax)” value at THR beta (Table 5, Assay 2, THRβ) is reported as “A (Emax≥75%)”. On THR alpha (Table 5, Assay 2, THRα), the “Activity category Assay 2 THRα (Emax)” value is “A (Emax≥75%)”.

In the case of `C[C@H]1C[C@H](c2cc(Oc3c(Cl)cc(-n4nc(N)c(=O)[nH]c4=O)cc3Cl)n[nH]c2=O)C1` (single isomer, unassigned) [Compound 86-A, 6-Amino-2-(3,5-dichloro-4-((5-((1r,3r)-3-methylcyclobutyl)-6-oxo-1,6-dihydropyridazin-3-yl)oxy)phenyl)-1,2,4-triazine-3,5(2H,4H)-dione], the Emax was greater than 75% at THR beta (setting [1]) and 50 to 75% at THR alpha (setting [3]). Besides, the pEC50 on THR beta (setting [2]) is 6.60 to 7.30; on THR alpha (setting [4]) it was 6.00 to 6.60.

Regarding `Cc1cc(-n2nc(N)c(=O)[nH]c2=O)cc(C)c1Cc1ccc2[nH]cc(C(C)C)c2n1` [Compound 55, 6-amino-2-[4-[(3-isopropyl-1H-pyrrolo[3,2-b]pyridin-5-yl)methyl]-3,5-dimethyl-phenyl]-1,2,4-triazine-3,5-dione], the Emax at THR beta (setting [1]) and at THR alpha (setting [3]) was greater than 75% throughout. Further, the pEC50 at THR beta (setting [2]) was greater than 7.30; at THR alpha (setting [4]) it was 6.60 to 7.30.

`Cc1cc(-n2nc(C#N)c(=O)[nH]c2=O)cc(C)c1Cc1ccc2[nH]cc(C(C)C)c2n1` [Compound 31, 2-[4-[(3-isopropyl-1H-pyrrolo[3,2-b]pyridin-5-yl)methyl]-3,5-dimethyl-phenyl]-3,5-dioxo-1,2,4-triazine-6-carbonitrile]: the Emax on THR beta (setting [1]) and at THR alpha (setting [3]) was greater than 75% each time. Also, the pEC50 on THR beta (setting [2]) is 6.00 to 6.60; on THR alpha (setting [4]), 5.00 to 6.00.

Take `Nc1nn(-c2cc(Cl)c(Oc3ccc4c(c3)C3(CCCC3)C(=O)N4)c(Cl)c2)c(=O)[nH]c1=O` [Compound 83]: the results for the Emax on THR beta (setting [1]) and at THR alpha (setting [3]) were 50 to 75% and greater than 75%, respectively. Also, the pEC50 on THR beta (setting [2]) and on THR alpha (setting [4]) was greater than 7.30 each time.

For the compound `Nc1nn(-c2cc(Cl)c(Oc3cc(C4CC5(CC5)C4)c(=O)[nH]n3)c(Cl)c2)c(=O)[nH]c1=O` [Compound 93], the Emax at THR beta (setting [1]) was 50 to 75%; at THR alpha (setting [3]) it was less than 50%. Also, the figures for the pEC50 at THR beta (setting [2]) and at THR alpha (setting [4]) were 6.00 to 6.60 and 5.00 to 6.00, respectively.
